Data taken from patent publication US4680286A, “Use of selenium-containing compounds for negating the toxic effects of gold compounds used in the treatment of rheumatoid arthritis, and a novel selenium-containing gold compound and use thereof as an anti-rheumatoid arthritis medicine” (priority 1985, dated 1987).

How the values were obtained:
[1] = Accumulation of selenium in tissue of mice; type: in vivo; conditions: sodium selenite in drinking water over an extended period, level at which gold was given
Experimental: (§1) A number of experiments in which sodium selenite was given to mice both prior to and after treatment with a gold compound were conducted. In the first series of experiments in which the selenium compound was administered prior to the gold injection, mice were given sodium selenite in their drinking water over an extended period of time. Periodically, the mice were sacrificed and the kidney and liver were analyzed to monitor the accumulation of selenium. When observed selenium levels in the liver were on the order of 5 ppm, the remaining animals were given the gold compound at levels slightly exceeding the reported LD50 value.
In these experiments, large groups of mice were fed other type selenium compounds, which were sodium selenate, selenium yeast and selenocystine. Periodically, one would be sacrificed and the selenium concentration of the kidney and liver would be determined. When above 5 to about 7 ppm selenium concentrations were obtained, the remaining mice were given injections of Na3 Au(S2 O3)2.2H2 O at the reported LD50 value. A control group that received no dietary selenium was maintained. This control group was given the gold salt at the same time as the selenium accumulated mice. The toxic effects of the gold was then compared in the two groups of mice.

[2] = test system: toxic effects of Na3 Au(S2 O3)2.2H2 O; experiment: Gold toxicity in mice given sodium selenite prior to (drinking water) or after (injection) the gold compound; type: in vivo; conditions: gold at or slightly exceeding reported LD50, vs gold-only control
Experimental: as §1
In the second series of experiments, in which sodium selenite were injected after the gold injection, the mice were given dosages of gold compounds at the reported LD50 value and were then injected with sodium selenite. In both series of experiments, a control group which received the gold compound but no selenium compound was maintained. […] In all cases, the gold was administered as Na3 Au(S2 O3)2.2H2 O.

[3] = test system: toxicity of mercury, silver and thallium; conditions: observed by other researchers; cited from earlier work
[4] = test system: cadmium-induced testicular demage; conditions: Kar, Das and Mukerji 1960; cited from earlier work

Compound	observed selenium levels in the liver [1] [ppm]	toxic effects compared with mice which received only the gold treatment [2]	protection against the toxicity of mercury, silver and thallium [3]	protection against cadmium-induced testicular damage [4]
O=[Se](O)O [sodium selenite]	~5	markedly reduced toxic effects	–	–
[Se] [selenium]	–	–	Protection effects	prevents cadmium-induced testicular demage
